According to US11839210B1, “Plant growth promoter with strigolactones regulation activities” (King Abdullah University of Science and Technology, priority 2017, dated 2023):

Legend:
[1] = system: wild-type and zas mutant rice plants; experiment: Rescue of zas mutant phenotype, soil-grown rice in rhizotron root analysis system; assay type: in vivo, Oryza sativa Nipponbare; conditions: 10 μM zaxinone
Procedure: Three days-old seedlings were grown in soil in Hoagland nutrient solution containing K2HPO4·2H2O (+Pi) with 10 μM zaxinone treatment. The solution was changed every other day for 2 weeks, adding the chemical at each renewal. Plants grown without zaxinone served as the controls and phenotypic data were recorded. To prevent zaxinone degradation from light exposure, 1 μl/ml emulsifier was added into the Hoagland nutrient solution.

[2] = system: mycorrhizal wild-type and zas mutant rice plants; experiment: Zaxinone effect on mycorrhizal rice plants (phenotype and AM colonization); assay type: in vivo, Oryza sativa Nipponbare
Procedure: Seeds of WT (cv. Nipponbare) and zas mutant were germinated in pots containing sand and incubated for 10 days in a growth chamber under conditions having a 14 h light (23° C.)/10 h dark (21° C.) cycle. Plants used for mycorrhization were inoculated with Funelliformis mosseae (BEG 12, MycAgroLab, France) or Rhizophagus irregularis (INOQ GmbH, Germany) Both fungi inocula (25%) were mixed with sterile quartz sand and used for colonization. Plants were watered with a modified Long-Ashton (LA) solution containing 3.2 μM Na2HPO4·12H2O and were grown in a growth chamber under the 14 h light (24° C.)/10 h dark (20° C.) regime.
Wild-type and zas mycorrhizal plants were grown in sand and watered twice a week with different concentrations of zaxinone (5 μM; 0.5 μM; 50 nM) directly applied in the Long Ashton nutrient solution. Data were collected 35 days post germination (dpg).
Wild-type and zas mycorrhizal roots were stained with 0.1% cotton blue in lactic acid and the estimation of mycorrhizal parameters was performed using MYCOCALC. For the molecular analyses, roots were immediately frozen in liquid nitrogen and stored at −80° C.
Mycorrizhal plants were grown in sand and watered with Long Ashton solution (3.2 μM Pi) for five weeks post AM fungus inoculation. FIGS. 23A-23F show the effect of twice a week treatment with zaxinone (5 μM) for wild-type (WT) and zas mutant (zas) plants. Data are means±SE, n=9 plants. Different letters above the bars indicate significant differences according to Tukey's test (P<0.05).

Striga hermonthica seeds = experiment: Striga hermonthica seed germination bioassay with rice root exudates; assay type: in vivo
Procedure: For the analysis of SLs, one week-old seedlings were further transferred into 50 ml falcon tube (three seedlings per tube) containing Hoagland nutrient solution with K2HPO4·2H2O (+Pi) and grown in the growth cabinet for one week. The rice seedlings were then subjected to phosphate deficiency for another one week period. On the day of root exudates collection, rice seedlings were first treated with 5 μM zaxinone for 6 h and then root exudates and root tissues were collected from each tube for LC-MS/MS analysis and Striga bioassays.
The Striga seed germination bioassay was carried out in the following manner After 10 days of pre-conditioning (30° C. under moisture for 10 days), Striga seeds were supplied with 50 μl of SL collected from root exudates of zaxinone treated and non-treated wild-types and zas mutants. After SLs application, Striga seeds were incubated at 30° C. in the dark for two days. Germinated (seeds with radicle) and non-germinated seeds were counted under a binocular to calculate germination rates (%).

D17 = experiment: qRT-PCR of D17 gene expression in rice roots after zaxinone treatment; assay type: in vivo, rice (Oryza sativa Nipponbare); conditions: −Pi, 6 h
Procedure: (§1) For the analysis of SL transcript levels in the zas mutant, one week-old seedlings were grown hydroponically in half-strength modified Hoagland nutrient solution with K2HPO4·2H2O (+Pi) and without K2HPO4·2H2O (−Pi) for 7 days. Seedlings were further treated with zaxinone for 6 h and tissues were collected.
(§2) Total RNA was extracted from the roots and shoots using a Qiagen Plant RNeasy Kit according to the manufacturer's instruction. cDNA was synthesized from 1 μg of total RNA using iScript cDNA Synthesis Kit (BIO-RAD Laboratories, Inc, 2000 Alfred Nobel Drive, Hercules, CA, Cat. No #170-8890) according to instructions in the user manual. For mycorrhizal samples, single-strand cDNA was synthesized from 1 μg of total RNA using Super-Script II (Invitrogen) according to instructions in the user manual. Primers used for real-time quantitative RT-PCR (qRT-PCR) analysis are listed below in Table 3. qRT-PCR was performed using SYBR Green Master Mix (Applied Biosystems; www.lifetechnologies.com) in a StepOnePlus (Life Technologies, Carlsbad, CA, USA). For mycorrhizal samples, qRT-PCR was performed using a Rotor-Gene Q 5plex HRM Platform (Qiagen). The 2-ΔCt method was used to calculate the relative gene expression levels and rice Ubiquitin (OsUBQ or OsRubQ1) gene was used as the internal control to normalize target gene expression.
(§3) 14-day-old rice seedlings were transferred to new hydroponic pots containing fresh media with or without chemicals for 6 hours. SL biosynthetic (D27, D10, D17 and MAX1-Os900) gene expression were determined under −Pi conditions (phosphate deficient) with zaxinone (2.5 and 5 μM) treatment of both Nipponbare wild-type (WT) rice roots and zas mutant rice roots. The expression levels (1301) were detected by quantitative RT-PCR. Ubiquitin was used as a reference gene. Mock treatment (control) treatment consisted of 0.1% acetone. Bars (1302) show comparisons between the treatments and represent mean±SD (n=3). Decrease in SLs levels in the plants treated with zaxinone ranged from approximately 40% to 70%.

D27 = experiment: qRT-PCR of D27 gene expression in rice roots after zaxinone treatment; assay type: in vivo, rice (Oryza sativa Nipponbare); conditions: −Pi, 6 h
Procedure: as §1, §2, §3

[3] = WT rice roots, 2.5 μM zaxinone, WT mock approx. 1.0
[4] = WT rice roots, 5.0 μM zaxinone, WT mock approx. 1.0
[5] = zas mutant rice roots, 2.5 μM zaxinone
[6] = zas mutant rice roots, 5.0 μM zaxinone

## CC(=O)/C=C/C=C(C)/C=C/C1=C(C)C[C@@H](O)CC1(C)C [zaxinone, 3-OH-β-apo-13-carotenone]
[1]; wild-type seedlings
  shoots and roots vs untreated control seedlings (visual): some improvement
[1]; zas mutant seedlings
  shoots and roots vs untreated control seedlings (visual): substantial improvement
[1]; zas mutant
  increase of shoot length over untreated seedlings: about 10 cm
  shoot biomass vs untreated: doubled
[1]; zas mutant, untreated 15-20 cm^2
  root surface area: 25-50 cm^2
[2]; 5 μM zaxinone
  AM colonization capacity: did not improve
[2]; WT mycorrhizal plants, 5 μM zaxinone twice a week, five weeks
  growth vs Mock treatment: did not significantly differ
[2]; zas mutant mycorrhizal plants, 5 μM zaxinone twice a week, five weeks
  crown root number, root biomass, shoot length and shoot biomass: significant increase
Striga hermonthica seeds; culture medium from zaxinone treated WT rice
  decrease in germination rate of S. hermonthica seeds vs mock-treated culture medium: approximately 50%
Striga hermonthica seeds; culture medium from zaxinone treated WT rice and zas mutant rice (both together)
  decreases in germination rates of S. hermonthica seeds vs mock: 40-50%
Striga hermonthica seeds; culture medium from zaxinone treated zas mutant rice
  decrease in germination rate of S. hermonthica seeds vs mock-treated culture medium: approximately 40%
Striga hermonthica seeds; exudates from zaxinone treated zas mutant (zas/Zax), phosphate-starved, 5 μM
  germination of Striga seeds exposed to root exudates: decreased to levels near the germination rates for the wild-type control
Striga hermonthica seeds; zas exudates, normal phosphorus (+Pi), 5 μM zaxinone, exudates diluted 9 times
  germinating activity of root exudates on Striga hermonthica seeds: decreased germinating activity of zas exudates (zas/Zax) to a level below that of the wild-type sample
Striga hermonthica seeds; zas mutant exudates, phosphate-starved, 5 μM zaxinone, 6 h
  lowering of Striga seed germinating activity of root exudates: 40%
D17; WT rice roots, 2.5 μM zaxinone
  decrease of D17 relative expression vs mock: approximately 75%
D17; [3]
  D17 relative expression: approximately 0.25
D17; WT rice roots, 5.0 μM zaxinone
  decrease of D17 relative expression vs mock: ~70%
D17; [4]
  D17 relative expression: approximately 0.3
D17; [5]
  decrease of D17 relative expression vs mock: approximately 60%
D17; zas mutant rice roots, 2.5 μM zaxinone, zas mock approx. 2.5
  D17 relative expression: approximately 1.0
D17; [6]
  decrease of D17 relative expression vs mock: ~68%
D17; zas mutant rice roots, 5.0 μM zaxinone, zas mock approx. 2.5
  D17 relative expression: approximately 0.8
D27; WT rice roots, 2.5 μM zaxinone
  decrease of D27 relative expression vs mock: approximately 50%
D27; [3]
  D27 relative expression: approximately 0.5
D27; WT rice roots, 5.0 μM zaxinone
  decrease of D27 relative expression vs mock: ~75%
D27; [4]
  D27 relative expression: approximately 0.25
D27; [5]
  decrease of D27 relative expression vs mock: approximately 63%
D27; zas mutant rice roots, 2.5 μM zaxinone, zas mock approx. 3.25
  D27 relative expression: approximately 1.2
D27; [6]
  decrease of D27 relative expression vs mock: ~77%
D27; zas mutant rice roots, 5.0 μM zaxinone, zas mock approx. 3.25
  D27 relative expression: approximately 0.75
